Reference: the NIST ThermoML archive (doi:10.1021/je3011979)

How the values were obtained:
[1] = excess molar enthalpy (molar enthalpy of mixing); xn = mol fraction of the nth substance listed; conditions: 101 kPa, Liquid, Calvet calorimetry
[2] = xn = mol fraction of the nth substance listed; conditions: 101 kPa, Liquid, Vibrating tube method

CCCOC(C)=O [propyl ethanoate] + CCCCCCCCC
Conditions	excess molar enthalpy [kcal/mol]	mass density [kg/m3]
[1], 291.15 K, x1 = 0.1167	0.142	–
[1], 291.15 K, x1 = 0.2247	0.2261	–
[1], 291.15 K, x1 = 0.3093	0.2789	–
[1], 291.15 K, x1 = 0.379	0.3102	–
[1], 291.15 K, x1 = 0.4448	0.325	–
[1], 291.15 K, x1 = 0.5009	0.3305	–
[1], 291.15 K, x1 = 0.5447	0.3277	–
[1], 291.15 K, x1 = 0.5617	0.3248	–
[1], 291.15 K, x1 = 0.6139	0.3136	–
[1], 291.15 K, x1 = 0.6683	0.2921	–
[1], 291.15 K, x1 = 0.7299	0.2593	–
[1], 291.15 K, x1 = 0.7964	0.215	–
[1], 291.15 K, x1 = 0.8649	0.155	–
[1], 291.15 K, x1 = 0.9356	0.0848	–
[2], 291.15 K, x1 = 0.0569	–	724.6
[2], 291.15 K, x1 = 0.1163	–	730.7
[2], 291.15 K, x1 = 0.1916	–	739
[2], 291.15 K, x1 = 0.282	–	750
[2], 291.15 K, x1 = 0.3583	–	760
[2], 291.15 K, x1 = 0.4338	–	770.9
[2], 291.15 K, x1 = 0.4846	–	778.7
[2], 291.15 K, x1 = 0.5686	–	792.4
[2], 291.15 K, x1 = 0.6289	–	803.2
[2], 291.15 K, x1 = 0.6876	–	814.4
[2], 291.15 K, x1 = 0.7441	–	826
[2], 291.15 K, x1 = 0.7948	–	837.1
[2], 291.15 K, x1 = 0.8162	–	841.9
[2], 291.15 K, x1 = 0.8844	–	858.5
[2], 291.15 K, x1 = 0.9349	–	871.7
[2], 291.15 K, x1 = 0.9464	–	874.9
[2], 291.15 K, x1 = 1	–	889.6
[2], 298.15 K, x1 = 0.0361	–	717.2
[2], 298.15 K, x1 = 0.0384	–	717.4
[2], 298.15 K, x1 = 0.1106	–	724.5
[2], 298.15 K, x1 = 0.2023	–	734.5
[2], 298.15 K, x1 = 0.2833	–	744.2
[2], 298.15 K, x1 = 0.3636	–	754.6
[2], 298.15 K, x1 = 0.4312	–	764.2
[2], 298.15 K, x1 = 0.5061	–	775.6
[2], 298.15 K, x1 = 0.5653	–	785.3
[2], 298.15 K, x1 = 0.6308	–	796.9
[2], 298.15 K, x1 = 0.6728	–	804.8
[2], 298.15 K, x1 = 0.7321	–	816.5
[2], 298.15 K, x1 = 0.7908	–	829
[2], 298.15 K, x1 = 0.8257	–	836.9
[2], 298.15 K, x1 = 0.8918	–	852.8
[2], 298.15 K, x1 = 0.9404	–	865.6
[2], 298.15 K, x1 = 1	–	882.5
[2], 318.15 K, x1 = 0.0217	–	700
[2], 318.15 K, x1 = 0.1046	–	707.7
[2], 318.15 K, x1 = 0.1791	–	715.4
[2], 318.15 K, x1 = 0.2659	–	725
[2], 318.15 K, x1 = 0.335	–	733.4
[2], 318.15 K, x1 = 0.4077	–	742.9
[2], 318.15 K, x1 = 0.4731	–	752.1
[2], 318.15 K, x1 = 0.5367	–	761.7
[2], 318.15 K, x1 = 0.5943	–	771
[2], 318.15 K, x1 = 0.6526	–	781.2
[2], 318.15 K, x1 = 0.7078	–	791.4
[2], 318.15 K, x1 = 0.7597	–	801.7
[2], 318.15 K, x1 = 0.8179	–	814.1
[2], 318.15 K, x1 = 0.8565	–	822.8
[2], 318.15 K, x1 = 0.8964	–	832.4
[2], 318.15 K, x1 = 0.9373	–	842.7
[2], 318.15 K, x1 = 1	–	859.8
[2], 328.15 K, x1 = 0.056	–	695.1
[2], 328.15 K, x1 = 0.1062	–	699.8
[2], 328.15 K, x1 = 0.1918	–	708.3
[2], 328.15 K, x1 = 0.2757	–	717.5
[2], 328.15 K, x1 = 0.3519	–	726.6
[2], 328.15 K, x1 = 0.429	–	736.7
[2], 328.15 K, x1 = 0.4999	–	746.7
[2], 328.15 K, x1 = 0.5709	–	757.6
[2], 328.15 K, x1 = 0.6217	–	766
[2], 328.15 K, x1 = 0.6881	–	777.7
[2], 328.15 K, x1 = 0.7461	–	788.7
[2], 328.15 K, x1 = 0.7857	–	796.8
[2], 328.15 K, x1 = 0.8318	–	806.6
[2], 328.15 K, x1 = 0.8801	–	817.6
[2], 328.15 K, x1 = 0.8853	–	818.8
[2], 328.15 K, x1 = 0.9429	–	833
[2], 328.15 K, x1 = 1	–	848.3

CCCOC(C)=O [propyl ethanoate] + CCCCCCCCCC
Conditions	excess molar enthalpy [kcal/mol]	mass density [kg/m3]
[1], 291.15 K, x1 = 0.0703	0.0935	–
[1], 291.15 K, x1 = 0.1623	0.18	–
[1], 291.15 K, x1 = 0.2528	0.2536	–
[1], 291.15 K, x1 = 0.3401	0.305	–
[1], 291.15 K, x1 = 0.4179	0.3344	–
[1], 291.15 K, x1 = 0.4892	0.3482	–
[1], 291.15 K, x1 = 0.5501	0.3489	–
[1], 291.15 K, x1 = 0.6049	0.3413	–
[1], 291.15 K, x1 = 0.615	0.3377	–
[1], 291.15 K, x1 = 0.6649	0.3196	–
[1], 291.15 K, x1 = 0.7166	0.2935	–
[1], 291.15 K, x1 = 0.7751	0.2524	–
[1], 291.15 K, x1 = 0.8324	0.202	–
[1], 291.15 K, x1 = 0.8924	0.14	–
[1], 291.15 K, x1 = 0.9524	0.0739	–
[1], 298.15 K, x1 = 0.1028	0.127	–
[1], 298.15 K, x1 = 0.2102	0.212	–
[1], 298.15 K, x1 = 0.3062	0.2768	–
[1], 298.15 K, x1 = 0.3924	0.3148	–
[1], 298.15 K, x1 = 0.4676	0.3332	–
[1], 298.15 K, x1 = 0.5348	0.3384	–
[1], 298.15 K, x1 = 0.5925	0.3334	–
[1], 298.15 K, x1 = 0.6163	0.3258	–
[1], 298.15 K, x1 = 0.6615	0.3119	–
[1], 298.15 K, x1 = 0.71	0.2856	–
[1], 298.15 K, x1 = 0.7601	0.2572	–
[1], 298.15 K, x1 = 0.8123	0.215	–
[1], 298.15 K, x1 = 0.8626	0.169	–
[1], 298.15 K, x1 = 0.9119	0.118	–
[1], 298.15 K, x1 = 0.9581	0.0619	–
[1], 318.15 K, x1 = 0.1083	0.133	–
[1], 318.15 K, x1 = 0.2064	0.2204	–
[1], 318.15 K, x1 = 0.3068	0.2894	–
[1], 318.15 K, x1 = 0.3885	0.326	–
[1], 318.15 K, x1 = 0.4625	0.3456	–
[1], 318.15 K, x1 = 0.5203	0.3475	–
[1], 318.15 K, x1 = 0.571	0.3423	–
[1], 318.15 K, x1 = 0.6098	0.3325	–
[1], 318.15 K, x1 = 0.6588	0.3176	–
[1], 318.15 K, x1 = 0.7129	0.2928	–
[1], 318.15 K, x1 = 0.7682	0.2588	–
[1], 318.15 K, x1 = 0.8288	0.212	–
[1], 318.15 K, x1 = 0.8862	0.153	–
[1], 318.15 K, x1 = 0.948	0.0829	–
[2], 291.15 K, x1 = 0.0491	–	735.2
[2], 291.15 K, x1 = 0.1081	–	740.2
[2], 291.15 K, x1 = 0.2054	–	749.4
[2], 291.15 K, x1 = 0.2933	–	758.8
[2], 291.15 K, x1 = 0.372	–	768
[2], 291.15 K, x1 = 0.4514	–	778.3
[2], 291.15 K, x1 = 0.5221	–	788.4
[2], 291.15 K, x1 = 0.5892	–	798.8
[2], 291.15 K, x1 = 0.6468	–	808.4
[2], 291.15 K, x1 = 0.7079	–	819.6
[2], 291.15 K, x1 = 0.7955	–	837.5
[2], 291.15 K, x1 = 0.8151	–	841.8
[2], 291.15 K, x1 = 0.8554	–	851.2
[2], 291.15 K, x1 = 0.8932	–	860.5
[2], 291.15 K, x1 = 0.9454	–	874.3
[2], 291.15 K, x1 = 0.9719	–	881.5
[2], 291.15 K, x1 = 1	–	889.6
[2], 298.15 K, x1 = 0.0402	–	729.1
[2], 298.15 K, x1 = 0.1191	–	735.7
[2], 298.15 K, x1 = 0.2077	–	744
[2], 298.15 K, x1 = 0.2921	–	752.8
[2], 298.15 K, x1 = 0.3727	–	762.1
[2], 298.15 K, x1 = 0.4509	–	772
[2], 298.15 K, x1 = 0.5172	–	781.2
[2], 298.15 K, x1 = 0.5788	–	790.5
[2], 298.15 K, x1 = 0.6343	–	799.5
[2], 298.15 K, x1 = 0.6912	–	809.6
[2], 298.15 K, x1 = 0.7504	–	820.9
[2], 298.15 K, x1 = 0.7988	–	830.9
[2], 298.15 K, x1 = 0.8462	–	841.5
[2], 298.15 K, x1 = 0.8882	–	851.7
[2], 298.15 K, x1 = 0.9267	–	861.6
[2], 298.15 K, x1 = 0.9583	–	870.2
[2], 298.15 K, x1 = 1	–	882.5
[2], 318.15 K, x1 = 0.064	–	715.5
[2], 318.15 K, x1 = 0.1164	–	719.7
[2], 318.15 K, x1 = 0.1961	–	726.8
[2], 318.15 K, x1 = 0.2794	–	734.8
[2], 318.15 K, x1 = 0.3548	–	742.9
[2], 318.15 K, x1 = 0.4333	–	752.2
[2], 318.15 K, x1 = 0.4936	–	760
[2], 318.15 K, x1 = 0.5563	–	768.6
[2], 318.15 K, x1 = 0.6213	–	778.5
[2], 318.15 K, x1 = 0.6781	–	788
[2], 318.15 K, x1 = 0.7226	–	795.8
[2], 318.15 K, x1 = 0.7733	–	805.5
[2], 318.15 K, x1 = 0.8247	–	816.1
[2], 318.15 K, x1 = 0.867	–	825.5
[2], 318.15 K, x1 = 0.9092	–	835.5
[2], 318.15 K, x1 = 0.9463	–	844.9
[2], 318.15 K, x1 = 1	–	859.8
[2], 328.15 K, x1 = 0.0485	–	706.6
[2], 328.15 K, x1 = 0.1075	–	711.1
[2], 328.15 K, x1 = 0.196	–	718.6
[2], 328.15 K, x1 = 0.2952	–	728
[2], 328.15 K, x1 = 0.3758	–	736.6
[2], 328.15 K, x1 = 0.4553	–	746
[2], 328.15 K, x1 = 0.5227	–	754.7
[2], 328.15 K, x1 = 0.5818	–	763
[2], 328.15 K, x1 = 0.6506	–	773.6
[2], 328.15 K, x1 = 0.7058	–	782.9
[2], 328.15 K, x1 = 0.7598	–	792.6
[2], 328.15 K, x1 = 0.8204	–	804.6
[2], 328.15 K, x1 = 0.8511	–	811.2
[2], 328.15 K, x1 = 0.8851	–	818.8
[2], 328.15 K, x1 = 0.9321	–	830.2
[2], 328.15 K, x1 = 0.958	–	836.9
[2], 328.15 K, x1 = 1	–	848.3
